Test results taken from paper doi:10.1101/2020.10.16.342121v1 (biorxiv, 2020).

How the values were obtained:
[1] = target: T1, human serum albumin (HSA) (Homo sapiens, UniProt P02768); experiment: intrinsic fluorescence quenching titration; assay type: binding
[2] = target: T1, human serum albumin (HSA); experiment: thermal denaturation followed by intrinsic fluorescence; assay type: binding; settings: 10 mM PBS pH 7.4, 0.4 μM HSA, 40 μM DHLA, 37-87 °C

T1 sequence (P02768 25-609): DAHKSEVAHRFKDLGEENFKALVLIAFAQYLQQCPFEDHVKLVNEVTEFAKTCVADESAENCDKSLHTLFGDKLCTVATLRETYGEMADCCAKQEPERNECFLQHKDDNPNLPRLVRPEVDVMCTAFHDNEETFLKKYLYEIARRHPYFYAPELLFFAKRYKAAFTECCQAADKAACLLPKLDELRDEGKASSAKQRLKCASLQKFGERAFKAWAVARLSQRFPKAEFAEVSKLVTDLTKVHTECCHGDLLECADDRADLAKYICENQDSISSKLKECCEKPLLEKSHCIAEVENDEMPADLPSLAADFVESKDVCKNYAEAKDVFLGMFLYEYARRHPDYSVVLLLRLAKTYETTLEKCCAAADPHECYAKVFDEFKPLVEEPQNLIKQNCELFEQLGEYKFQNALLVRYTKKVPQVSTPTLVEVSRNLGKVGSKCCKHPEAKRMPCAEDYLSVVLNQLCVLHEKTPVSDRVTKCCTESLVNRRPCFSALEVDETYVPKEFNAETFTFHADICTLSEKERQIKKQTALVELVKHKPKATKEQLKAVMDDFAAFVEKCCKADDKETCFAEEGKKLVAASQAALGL

- Kd [1]: 125 µM
- Tm with ligand (HSA alone 68 °C) [2]: 70 °C
Structure (SMILES): O=C(O)CCCC[C@@H](S)CCS [dihydro-alpha-lipoic acid]
